Measured values from publication PMC12040169 (PLOS Biology, 2025).

Test: in vitro
Conditions: human, hela cells, % viability

SMILES	viability at 28.5 h, 10 µM [%]
O=C(CCCc1c[nH]c2ccccc12)N1CCn2c(nnc2C2CC2)C1 [CBK283689]	96.6
NC(=O)C1(N2CCCCC2)CCN(C(=S)Nc2ccc(F)c(Cl)c2)CC1 [CBK267165]	97.4
COc1ccc(NC2=NN(c3ccccc3)C(=O)C2)cc1 [CBK288085]	104
CN(CCC1CCN(c2ccncc2)CC1)C(=O)c1cc2sccc2[nH]1 [CBK305468]	93.3
NS(=O)(=O)c1ccc(CCNS(=O)(=O)c2ccccc2[N+](=O)[O-])cc1 [CBK264369]	111
COc1ccc(CCN(C)Cc2ccncc2)cc1OC [CBK261861]	98.4
OC(COc1ccccc1)Cn1ncnn1 (centres unmarked) [CBK026083]	89.6
O=C(O)/C=C\C(=O)NCC(=O)O [CBK260989]	93.5
COC(=O)c1ccc(-c2ccc3[nH]ccc3c2)nc1 [CBK160174T]	89.1
Cc1cnn(CC2CCCN2C(=O)CC2OCCc3ccsc32)c1 (centres unmarked) [CBK305370]	86.5
CC(=O)Nc1cccc(C(=O)O)c1Cl [CBK038814]	94.1
Cc1ccc2c(c1)N(C(=O)COc1nc3ccccc3s1)C(C)(C)c1ssc(=S)c1-2 [CBK262696]	97.7
CC(C)NC(=O)c1cccc2c1CCCN2Cc1nc2ccccc2o1 [CBK295135]	101
Cc1cc(CNC(=O)N2CCCCC2CO)no1 (centres unmarked) [CBK156160]	108
O=C(Oc1n[nH]c2ccccc12)c1ccc(Cl)cc1 [CBK009976]	100
CNCCc1nc(-c2ccc(F)cc2)c2cnccn12 [CBK035927]	90.7
Cc1nn(-c2ccc(F)cc2)c2[nH]c(=O)c(CNC3CC3)cc12 [CBK283121]	98.1
COc1ccccc1CN(Cc1cccnc1)C(=O)c1cnc(C)cn1 [CBK306972]	95.1
Cc1cccc(-c2ccc3c(c2)C(=O)N2CC[C@H](NC(=O)NC(C)C)C[C@H]2C(=O)N3)c1C [CBK289567]	97.9
COc1cc(CN2CCC3(CC2)CN(CCO)c2ccccc23)cc(OC)c1OC [CBK131524]	94.9
Cn1cc(CCCC(=O)NC2CCCOC2)c2ccccc21 (centres unmarked) [CBK282486]	81.8
CC(C)CCN(C)C(=O)c1cccc(S(=O)(=O)NCc2ccsc2)c1 [CBK307656]	110
COc1nccnc1-c1cnn(C)c1 [CBK107069]	89.6

SMILES	viability at 28.5 h, 10 µM [%]
NC(=O)c1cccnc1N1CCN(CCCN(c2ccc(F)cc2)c2ccc(F)cc2)CC1 [CBK025341C]	110
Fc1cccc(-c2nccnc2NCCc2c[nH]c3ccccc23)c1 [CBK036861]	96.7
CCCN1CCCN(c2ccc(-n3ccc(C)n3)nn2)CC1 [CBK306304]	107
CC(=O)C1=C(O)C(=O)N(CCCO)C1c1cccc([N+](=O)[O-])c1 (centres unmarked) [CBK263753]	92.6
O=C(Nc1cccnc1N1CCNCC1)c1cccnc1 [CBK029426T]	120
CCn1cc(NCc2ccccc2Cl)c(C(=O)O)n1 [CBK286807]	95.2
Cc1nn(C)c(C)c1C(C)NS(=O)(=O)Cc1cccc(F)c1 (centres unmarked) [CBK281396]	107
O=c1[nH]c2ccc(Oc3ccc4[nH]c(=O)c(=O)[nH]c4c3)cc2[nH]c1=O [CBK293978]	101
O=C1NN=C(c2ccccc2)CC1c1c[nH]c2ccccc12 (centres unmarked) [CBK288235]	104
Nc1c(C(=O)NCc2ccccc2)c2nc3ccccc3nc2n1CCO [CBK267201]	108
COc1ccc(NC(=O)N[C@H]2[C@H](O)[C@@H](Sc3ccccc3)[C@@H]3OC[C@H]2O3)cc1 [CBK288813]	96.4
CC(=O)Nc1ccc(F)c(NC(=O)NCCN2CCCOC2=O)c1 [CBK307166]	92.8
COc1ccc(Nc2nc(N)nc(CSc3nnc(N)s3)n2)cc1 [CBK266682]	90.6
COc1ccccc1/C=C/c1nn2c(C(C)C)nnc2s1 [CBK269501]	79.3
COc1ccc(C)cc1C1(CNC(=O)C2CCCC2N)CCOCC1 (centres unmarked) [CBK304308C]	108
COc1cc(OC)cc(C(=O)N2CCC3(CC2)CC(=O)c2cc(C)ccc2O3)c1 [CBK167804]	94.6
CCN(CC)CCn1cc(C2CCCN(C)CC2)c2ccccc21 (centres unmarked) [CBK023788B]	91.1
COc1ccccc1OCCO [CBK000949]	98.3
O=C(C1CCCC1)N1CCc2nc(-c3ccccc3)[nH]c(=O)c2C1 [CBK282331]	99
O=C1COc2ccccc2C/C=C/CC2(CCCN(C(=O)CN3CCCC3=O)C2)CN1 (centres unmarked) [CBK292032]	98.1
Cc1nc2c([N+](=O)[O-])c3c(c([N+](=O)[O-])c2[nH]1)Nc1nonc1N3 [CBK261069]	107
CC1(C)SC(c2ccc(F)cc2)N[C@H]1C(=O)O (some centres unmarked) [CBK025917]	91.4
O=C(NC1CCCC1)c1ccc(Cl)cc1Cl [CBK002108]	93.7

SMILES	viability at 28.5 h, 10 µM [%]
O=C1COc2ccccc2C/C=C/C[C@H]2CN(C(=O)CN3CCN(CCO)CC3)CC[C@H]2N1 [CBK292146]	110
COc1ccc(C2(C(=O)NCc3cccs3)CC2)cc1 [CBK149831]	106
c1coc(-c2nccnc2NCCc2c[nH]c3ccccc23)c1 [CBK037316]	95.2
CCC(CO)Nc1cncc(-c2cccs2)n1 (centres unmarked) [CBK065534]	110
CC(C)(C)Nc1c(C2CCN(C(=O)C3CC3)CC2)nc2ccccn12 [CBK284787]	104
Cc1ccc(SCCNS(=O)(=O)c2ccc(C)cc2)cc1 [CBK263564]	108
Nc1ncc(-c2ccoc2)nc1Nc1ccc2[nH]ccc2c1 [CBK063868]	80.5
C(=C\c1ccccc1)/CSc1nnc(CSc2nc3ccccc3s2)n1-c1ccccc1 [CBK264467]	101
O=[N+]([O-])c1ccc2c(c1)C(O)n1nc(-c3ccncc3)nc1S2 (centres unmarked) [CBK288533]	94.7
CCOC(=O)N1CCN(C(=O)Nc2ccc3oc(=O)n(C)c3c2)CC1 [CBK306250]	109
CC[C@H]1CN(C(=O)c2cccnc2)CC[C@H]1CC(=O)NCc1ccc(F)cc1 [CBK289143]	88.6
COc1ccc2cc(CNc3ccc(Oc4ccccc4)cc3)c(=O)[nH]c2c1 [CBK286158]	83.7
Cn1ccnc1C(O)(c1ccccc1)c1nccn1C [CBK262084]	97.6
CC(C)(C)c1nnc(NCC2CCCCC2)s1 [CBK075043]	101
CN(C)CCNC(=O)c1ccc(-c2cnc(OCC3CCN(C(=O)OC(C)(C)C)CC3)nc2)cc1 [CBK167544]	89.8
C(=N\n1cnnc1)/c1ccccc1OCc1cccc2ccccc12 [CBK263864]	94.6
Fc1ccc(-c2cncc(Nc3cccc(C(F)(F)F)c3)n2)c(F)c1 [CBK065763]	92.5
CCCc1n[nH]c(-c2cc(C(F)(F)F)ccc2F)c1C(=O)OCC [CBK107231]	94.6
COc1ccc(CC(=O)N2CCCc3c(cnn3C)C2)cc1F [CBK285285]	87.9
O=C(O)CCc1ccc(-c2cccs2)n1NC(=O)c1sc2ccccc2c1Cl [CBK264782]	96.1
CC(=O)c1cccc(NC(=O)Nc2ccc(S(=O)(=O)Nc3cc(C)on3)cc2)c1 [CBK299794]	111
CC(C)C[C@@H](C(=O)N1CCC(C(=O)O)CC1)n1c(=O)[nH]c2ccccc2c1=O [CBK286762]	88.5
CCc1n[nH]c(C(=O)NCC(c2ccc(F)cc2)N2CCCC2)c1C (centres unmarked) [CBK282630]	85.8

SMILES	viability at 28.5 h, 10 µM [%]
O=C(Nc1cccc2ccccc12)c1ccc(CSCc2ccccc2)cc1 [CBK263759]	105
O=C(O)c1ccc(NC(=O)c2cnccn2)cc1 [CBK268110]	94
COc1ccc([C@@]23CC[C@@H](NC(=O)Nc4ccc(F)cc4)C[C@@H]2N(C)CC3)cc1OC [CBK036458T]	93.5
CCCN(CCC#N)S(=O)(=O)c1ccc(C(C)C)cc1 [CBK043453]	94.4
Cc1nc(COc2ccc(Cl)cc2)sc1C(=O)N1CCC1 [CBK306353]	88.5
O=S(=O)(c1ccc(F)cc1F)n1ccc2c(N3CCNCC3)nccc21 [CBK059061C]	89.7
O=C(c1ccc2[nH]nnc2c1)N1CCN(S(=O)(=O)Cc2ccccc2)CC1 [CBK295346]	79.3
CC1CCN(S(=O)(=O)c2ccc(NC(=O)C3=COCCO3)cc2)CC1 [CBK295332]	102
CCC(=O)NC(=S)Nc1cccc(NC(=O)c2cccc(Cl)c2)c1 [CBK058759]	93.6
COc1ccccc1CC(=O)N1C2CCC1CC(O)(c1ccco1)C2 (centres unmarked) [CBK284106]	88.8
O=C(c1ccsc1)N1CCC2(CC1)CN(Cc1ccccc1)CC(c1ccccc1)O2 (centres unmarked) [CBK286438]	94.4
CN(C)c1nc(Oc2ccc(OCCOc3ccccc3)nn2)nc(N(C)C)n1 [CBK264976]	104
Cc1c(Br)c(C(F)(F)F)nn1CC(=O)Nc1ccc(Oc2cc([N+](=O)[O-])cc([N+](=O)[O-])c2)cc1 [CBK262558]	97.5
CC(C)c1ccc(NC(=O)O[C@@H]2CO[C@H]3[C@@H]2OC[C@@H]3NC(=O)C2CC2)cc1 [CBK289471]	99
COc1ccc(Cn2nc(NS(=O)(=O)c3ccc(-c4ccon4)s3)c3ccccc32)cc1 [CBK048031]	92.9
N#Cc1ccccc1NC(=O)CN1CCCCCC1 [CBK270088]	87.8
COc1ccc(NC(=O)c2ccc(N3CCN(Cc4ccccc4)CC3)c([N+](=O)[O-])c2)cc1 [CBK263260]	106
COc1ccc(-c2cn(-c3cc(Cl)ccc3C)nn2)cc1 [CBK113023]	58.6
CN1CCN(C(=O)CCn2c(C(F)(F)F)cc3cccnc32)CC1 [CBK284896]	93.7
CCCNC(=O)c1ccc(C)c(NC(=O)N[C@@H]2C[C@@H](CO)N(C)C2)c1 [CBK307451]	92.9
